{"source": "paper PMC6981454", "about": "“Promising 2,6,9-Trisubstituted Purine Derivatives for Anticancer Compounds: Synthesis, 3D-QSAR, and Preliminary Biological Assays” (International Journal of Molecular Sciences, 2019)", "key": {"[1]": {"test_system": "HL-60 cells", "assay": "Cell cycle analysis, PI flow cytometry", "type": "cell-based, human", "settings": "HL-60, 25 µM, 48 h", "experimental": "Considering that apoptotic mechanisms are associated with the G1/S boundary cell cycle arrest and the inhibition of cell cycle progression is an important factor to control cancer cell growth, we were interested in investigating whether 7h affects the cell cycle of HL-60 cells. We analyzed the cell cycle distribution of the cells stained with PI using flow cytometry. […] This effect is in agreement with apoptotic mechanisms.\nHL60 cells were plated in 6-well plates at a density of 2.0 × 10^5 cells/1.5 mL/well, and grown overnight at 37 °C in a 5% CO2 humidified atmosphere. Cells were treated with compounds 7h at 25 µM concentration or 1% DMSO (controls) for 48 h. Aliquots of cells were collected, pelleted, washed, and fixed with ethanol (70% v/v) for at least 30 min at 4 °C. Cells were twice resuspended in PBS, and after centrifugation and elimination of the supernatant, resuspended in a solution containing PBS, PI ([…], Invitrogen), RNase A (20 mg/mL, Invitrogen). After a final incubation for 1 h in the dark at 37 °C; PI signal was measured using a FACS canto II flowcytometer (BD; Mountain View, CA) with a 488 nm excitation laser, captured, and FACS Diva was used as the acquisition software. The percentage of cells in each phase was analyzed using the FCS Express v6 software. Three independent biological replicates were performed."}, "[2]": {"test_system": "p53", "assay": "p53-dependent transcriptional activity reporter assay (β-galactosidase) in Arn-8 cells", "type": "cell-based, human", "settings": "p53 reporter assays", "experimental": "Table S3. Results of p53 activity of compounds 4a-u and 7a-j.\nCompound fold p53 activity […]\np53-dependent transcriptional activity\nTo measure p53-dependent transcriptional activity, -galactosidase activity was determined in the human melanoma cell line Arn-8, stably transfected with a p53-responsive reporter construct pRGC foslacZ as described before. After 24 h incubation with the inhibitors, the cells were permeabilized with 0.3% Triton X-100 for 15 min, and then 4-methylumbelliferon-ß-D-galactopyranoside was added as a substrate to a final concentration of 80 µM. […]\nfluorescence was measured at 355/460 nm (ex/em) with a Fluoroskan Ascent microplate reader […]\nFigure S6. Dose-response effect of roscovitine on p53 activity in ARN8 cells (control experiment).\n(1 picture or pasted object on this page, not shown here)"}}}
{"smiles": "O=[N+]([O-])c1ccc(N2CCN(c3nc(Cl)nc4c3ncn4C3CCCC3)CC2)cc1", "note": "[7h, 2-Chloro-9-cyclopentyl-6-(4-(4-nitrophenyl)piperazin-1-yl)-9H-purine]", "values": [{"measurement": "effect on cell cycle distribution", "setting": "[1]", "result": "accumulation of cells in S cell cycle phase"}, {"measurement": "effect on p53 activation", "setting": "[2]", "result": "no effect on p53 activation"}]}
